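A five-concentration, 48-hour dose response in 96-well plates underlies each endpoint, interpolated linearly between surrounding concentrations. GI50: concentration for 50% inhibition of growth. TGI: concentration producing complete growth inhibition.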

What all share (test): NCI tumour cell line growth inhibition, 48 h
In experiment [1] the test system is TK-10 renal.
The test system of experiment [2] is NCI-H226 lung.
For experiment [3], the system named is HCT-116 colon.
Experiment [4] concerns A549 NSCLC.
For experiment [5], the system named is NCI-H23 lung.
The test system of experiment [6] is HT29 colon.
The test system of experiment [7] is SF-268 CNS.
Experiment [8] has as its system HCC-2998 colon.

`N#CN1CC[C@H](C(=O)Nc2cc3cc(C(N)=O)ccc3cn2)C1`: the GI50 in experiment [1] is 0.232 µM; in experiment [2] it was 0.238 µM; in experiment [3], 0.104 µM; in experiment [4], 0.527 µM; in experiment [5], 0.13 µM; in experiment [6], 0.144 µM. Further, the GI50 in experiment [7] is 0.0732 µM; in experiment [8], 0.144 µM. Further, the TGI in experiment [1] was 2.44 µM; in experiment [2], 5.08 µM; in experiment [3], 15.3 µM; in experiment [4], above 100 µM; in experiment [5] it was 2.05 µM; in experiment [6], 1.16 µM. The TGI amounted to 24.3 µM in experiment [7] and 10.8 µM in experiment [8].

Consider `Cc1cc(Cl)ccc1Nc1nc(C(F)(F)F)ccc1C(=O)N/N=C/c1ccccc1Cl`, for which the GI50 is 1 µM in experiment [1]; 1.3 µM in experiment [2]; 0.439 µM in experiment [3]; 1.77 µM in experiment [4]; 0.775 µM in experiment [5]; 2.01 µM in experiment [6]. Besides, the GI50 in experiment [7] was 0.811 µM; in experiment [8], 1.34 µM. The TGI in experiment [1] was 16.1 µM; in experiment [2] it was 5.07 µM; in experiment [3] it was 3.18 µM; in experiment [4], 11.6 µM; in experiment [5] it was 4.89 µM; in experiment [6] it was above 41.9 µM. In addition, the TGI in experiment [7] is 6.05 µM; in experiment [8], above 100 µM.

As to `C#COc1cccc(Nc2ncnc3cc(NC(=O)[C@H](C)Cl)ccc23)c1`, the GI50 in experiment [1] was 23.6 µM; in experiment [2], 24.6 µM; in experiment [3], 2.23 µM; in experiment [4], 3.18 µM; in experiment [5] it was 7.66 µM; in experiment [6], 2.21 µM. Further, the results for the GI50 in experiment [7] and in experiment [8] were 4.3 µM and 5.71 µM, respectively. The TGI in experiment [1], in experiment [2], in experiment [3], in experiment [4], in experiment [5] and in experiment [6] was above 62.5 µM throughout. The TGI in experiment [7] and in experiment [8] was above 62.5 µM throughout.

For `C=C(C)C(=O)O[C@@H]1C/C(C)=C\[C@H](OC(C)=O)C[C@](C)(O)/C=C2/OC(=O)C(COC(C)=O)=C21`, the TGI was 3.7 µM in experiment [1]; 6.17 µM in experiment [2]; 1.7 µM in experiment [3]; above 23.3 µM in experiment [4]; 5.21 µM in experiment [5]; 0.687 µM in experiment [6]. Further, the TGI in experiment [8] came out at 1.64 µM.

Consider `O=C(CC(=O)c1cccc(Cl)c1)c1cccc(Cl)c1`, for which the GI50 in experiment [1] is 4.12 µM; in experiment [2] it was 2.88 µM; in experiment [3] it was 1.15 µM; in experiment [4], 4.68 µM; in experiment [5], 1.91 µM; in experiment [7], 2.76 µM. Further, the GI50 in experiment [8] was 5.31 µM. Moreover, the TGI in experiment [1], in experiment [2], in experiment [3], in experiment [4], in experiment [5] and in experiment [7] was above 100 µM throughout. Moreover, the TGI in experiment [8] was above 100 µM.

Regarding `O=S(=O)(Nc1ccc(F)c(Cl)c1)c1ccc(-c2cnc(C3CC3)o2)cc1`, the GI50 in experiment [1] is 1.11 µM; in experiment [2], 0.822 µM; in experiment [3], 0.334 µM; in experiment [4], 0.773 µM; in experiment [5], 0.593 µM; in experiment [6], 0.259 µM. In addition, the GI50 in experiment [7] was 1.24 µM; in experiment [8], 1.13 µM. The TGI in experiment [1] was 8.29 µM; in experiment [2] it was 10.1 µM; in experiment [3] it was 10.4 µM; in experiment [4], 13.1 µM; in experiment [5], 11.3 µM; in experiment [6] it was 2.56 µM. The TGI in experiment [7] came out at 11.3 µM; in experiment [8], 7.9 µM.

As for `COc1ccc(C2C=C(c3ccc(Cl)cc3)N=C3SC=C(C)N32)c(Br)c1` (configuration not stated), the GI50 is 4.05 µM in experiment [1]; 11.4 µM in experiment [2]; 2.58 µM in experiment [3]; 3 µM in experiment [4]; 4.43 µM in experiment [5]; 3.62 µM in experiment [6]. Also, the GI50 in experiment [7] is 3.17 µM; in experiment [8], 4.43 µM. Further, the TGI is 14.4 µM in experiment [1]; above 100 µM in experiment [2]; 11 µM in experiment [3]; 24.7 µM in experiment [4]; 28.4 µM in experiment [5]; 12.7 µM in experiment [6]. In addition, the TGI was 13.1 µM in experiment [7] and 14.6 µM in experiment [8].

Consider `COc1ccc(/C=C\c2cc(OC)c(OC)c(OC)c2)cc1OCC(=O)Nc1ccc2nc(C)sc2c1`, for which the GI50 in experiment [1] is 4.21 µM; in experiment [2] it was 2.75 µM; in experiment [3], 3.57 µM; in experiment [5], 2.53 µM; in experiment [6] it was 3.31 µM; in experiment [7] it was 3.61 µM. The GI50 in experiment [8] was 6.9 µM. In addition, the TGI is above 100 µM in experiment [1]; 12 µM in experiment [2]; above 100 µM in experiment [3]; 7.95 µM in experiment [5]; above 100 µM in experiment [6]; 36.1 µM in experiment [7]. In addition, the TGI in experiment [8] is above 100 µM.

For the compound `COc1cc2c(=O)n(CCN(C)C)c3c4cc5c(cc4ccc3c2cc1OC)OCO5`, the GI50 was 0.512 µM in experiment [2]; 0.195 µM in experiment [3]; 0.212 µM in experiment [5]; 0.178 µM in experiment [6]; 0.222 µM in experiment [7]; 0.53 µM in experiment [8]. Moreover, the TGI in experiment [2] was 1.27 µM; in experiment [3] it was 2.01 µM; in experiment [5], 1.38 µM; in experiment [6], 5.43 µM; in experiment [8], 1.36 µM.

On to `COc1cc(/C=C/c2cc(/C=C/c3ccc(O)c(OC)c3)n(C(=O)Nc3ccc(Cl)cc3)n2)ccc1O`, for which the GI50 in experiment [1] is 0.966 µM; in experiment [2] it was 2.16 µM; in experiment [3], 0.354 µM; in experiment [4], 0.653 µM; in experiment [5], 0.494 µM; in experiment [6], 2.58 µM. Besides, the results for the GI50 in experiment [7] and in experiment [8] were 0.58 µM and 1.68 µM, respectively. Besides, the TGI in experiment [1] stood at 6.18 µM; in experiment [2] it was 7.92 µM; in experiment [3], 2.54 µM; in experiment [4], 10.3 µM; in experiment [5], 2.36 µM; in experiment [6], 6.26 µM. Moreover, the TGI in experiment [7] stood at 4.2 µM; in experiment [8], 6.01 µM.

These data come from PubChem BioAssay (NCI).
